Source: ChEMBL document CHEMBL2029230, “Identification, design and biological evaluation of heterocyclic quinolones targeting Plasmodium falciparum type II NADH:quinone oxidoreductase (PfNDH2)” (J Med Chem, 2012)
pIC50: −log10 of the molar value.

Assays:
Plasmodium falciparum [1] = experiment: Antimalarial activity against blood stage forms of Plasmodium falciparum 3D7 infected in human erythrocytes; assay type: functional, organism-based
[2] = Inhibition of Plasmodium falciparum recombinant NDH2 expressed in Escherichia coli F571 using decyclubiquinone as substrate at 1 min by spectrophotometry
Plasmodium falciparum [3] = experiment: Antimalarial activity against chloroquine-resistant Plasmodium falciparum W2; assay type: functional, organism-based
Plasmodium berghei [4] = experiment: Antimalarial activity against Plasmodium berghei NS infected in po dosed CD1 mouse assessed as decrease in parasitemia measured on day 4; assay type: functional; details: 96 h
Plasmodium berghei [5] = experiment: Antimalarial activity against Plasmodium berghei NS infected in CD1 mouse assessed as decrease in parasitemia at 20 mg/kg, po administered using Na2CO3 as vehicle measured on day 4; assay type: functional; set-up: scale not given: the % may be the effect or the level left
Plasmodium berghei [6] = experiment: Antimalarial activity against Plasmodium berghei NS infected in CD1 mouse assessed as decrease in parasitemia at 20 mg/kg, po administered using SSV as vehicle measured on day 4; assay type: functional; set-up: scale not given: the % may be the effect or the level left
[7] = Cmax in rat at 20 mg/kg, po; assay type: ADME, organism-based; set-up: dose 20 mg/kg, route oral; details: in vivo
[8] = Tmax in rat at 20 mg/kg, po; assay type: ADME, organism-based; set-up: dose 20 mg/kg, route oral; details: in vivo
[9] = Half life in rat at 20 mg/kg, po; assay type: ADME, organism-based; set-up: dose 20 mg/kg, route oral; details: in vivo
Rattus norvegicus = experiment: Volume of distribution in rat at 20 mg/kg, po; assay type: ADME, organism-based; set-up: dose 20 mg/kg, route oral; details: in vivo
[10] = AUC (0 to t) in rat at 20 mg/kg, po; assay type: ADME, organism-based; set-up: dose 20 mg/kg, route oral; details: plasma
[11] = Total clearance in rat at 20 mg/kg, po; assay type: ADME, organism-based; set-up: dose 20 mg/kg, route oral; details: in vivo
Plasmodium falciparum [12] = experiment: Antimalarial activity against […]-resistant Plasmodium falciparum TM90C2B containing cytochrome-b Y268S mutant; assay type: functional, organism-based
Plasmodium berghei [13] = experiment: Antimalarial activity against Plasmodium berghei NS infected in CD1 mouse assessed as decrease in parasitemia at 20 mg/kg, po administered using DET as vehicle measured on day 4; assay type: functional; set-up: scale not given: the % may be the effect or the level left

pIC50 (Plasmodium falciparum [1]) | Structure (SMILES) | further results
6.01 | CCOC(=O)c1c(-c2ccc(-c3ccc(OC(F)(F)F)cc3)nc2)[nH]c2ccccc2c1=O | 
6.99 | O=c1c(CO)c(-c2ccc(-c3ccc(OC(F)(F)F)cc3)nc2)[nH]c2ccccc12 | pIC50 [2]: 6.39
7.03 | COc1c(-c2ccc(-c3ccc(OC(F)(F)F)cc3)nc2)[nH]c2ccccc2c1=O | 
6.55 | Cc1c(-c2ccc(Oc3ccc(F)cc3)nc2)[nH]c2ccccc2c1=O | pIC50 [2]: 6.23
6.50 | Cc1c(-c2ccc(OC3CCC(F)(F)CC3)cc2)[nH]c2ccccc2c1=O | 
< 6.00 | Cc1c(-c2ccc(OC3CCOCC3)cc2)[nH]c2ccccc2c1=O | 
< 6.00 | Cc1c(-c2ccc(CN3CCOCC3)cc2)[nH]c2cc(Cl)ccc2c1=O | 
< 6.00 | Cc1c(-c2ccc(OC3CCOCC3)cc2)[nH]c2ncccc2c1=O | 
6.30 | Cc1c(-c2ccc(-c3ccc(CN4CCOCC4)cc3)cc2)[nH]c2ccccc2c1=O | 
< 6.00 | Cc1c(-c2ccc(-c3ccc(CN4CCOCC4)cc3)nc2)[nH]c2ccccc2c1=O | 
< 6.00 | Cc1c(-c2ccc(OCCN3CCOCC3)cc2)[nH]c2ccccc2c1=O | 
< 6.00 | Cc1c(-c2ccc(OCCN3CCOCC3)cc2)[nH]c2ccc(Cl)cc2c1=O | 
< 6.00 | Cc1c(-c2ccc(OCCN3CCOCC3)cc2)[nH]c2cc(Cl)ccc2c1=O | 
< 6.00 | Cc1c(-c2ccc(OCCN3CCCCC3)cc2)[nH]c2ccccc2c1=O | 
< 6.00 | Cc1c(-c2ccc(OCCN3CCCC3)cc2)[nH]c2ccccc2c1=O | 
< 6.00 | Cc1c(-c2ccc(OCCN3CCN(C)CC3)cc2)[nH]c2ccccc2c1=O | 
< 6.00 | Cc1c(-c2ccc(OCCn3ccnc3)cc2)[nH]c2ccccc2c1=O | 
< 6.00 | Cc1c(-c2ccc(-c3cnn(CCN4CCOCC4)c3)cc2)[nH]c2ccccc2c1=O | 
< 6.00 | Cc1c(-c2ccc(-c3cnn(CCN4CCCCC4)c3)cc2)[nH]c2ccccc2c1=O | 
< 6.00 | Cc1c(-c2ccc(-c3cccc(OCCN4CCOCC4)c3)nc2)[nH]c2ccccc2c1=O | 
< 6.00 | Cc1c(-c2ccc(-c3cccc(OCCN4CCCCC4)c3)nc2)[nH]c2ccccc2c1=O | 
6.22 | Cc1c(-c2ccc(-c3ccc(OCCN4CCCCC4)cc3)nc2)[nH]c2ccccc2c1=O | 
6.17 | Cc1c(-c2ccc(CN3CCN(Cc4ccc(OC(F)(F)F)cc4)CC3)nc2)[nH]c2ccccc2c1=O | 
 | Cc1c(-c2ccc(-c3ccc(OC(F)(F)F)cc3)nc2)[nH]c2ccccc2c1=O.O=P(O)(O)O | ED50 (Plasmodium berghei [4]): 1.87 mg/kg; ED90 (Plasmodium berghei [4]): 4.72 mg/kg
 | Cc1c(-c2ccc(-c3ccc(OC(F)(F)F)cc3)nc2)nc2ccccc2c1OP(=O)(O)O | Activity (Plasmodium berghei [5]): 100%
 | Cc1c(-c2ccc(-c3ccc(OC(F)(F)F)cc3)nc2)nc2ccccc2c1OC(=O)N1CCOCC1 | Activity (Plasmodium berghei [6]): 100%; Cmax [7]: 8100 ng/mL; Tmax [8]: 7 h; half-life [9]: 20.3 h; Vd (Rattus norvegicus): 2.8756 L/kg; AUC(0-t) [10]: 167 µg·h/mL; CL/F [11]: 1.63 mL/min/kg
 | CO[C@H]1O[C@@H]2O[C@@]3(C)CC[C@H]4[C@H](C)CC[C@@H]([C@H]1C)[C@@]24OO3 | ED50 (Plasmodium berghei [4]): 3.1 mg/kg; ED90 (Plasmodium berghei [4]): 5.8 mg/kg
 | O=C1C(O)=C([C@H]2CC[C@H](c3ccc(Cl)cc3)CC2)C(=O)c2ccccc21 [ATOVAQUONE] | pIC50 (Plasmodium falciparum [12]): 4.92; Activity (Plasmodium berghei [6]): 100%; ED50 (Plasmodium berghei [4]): 0.07 mg/kg; ED90 (Plasmodium berghei [4]): 0.11 mg/kg; Activity (Plasmodium berghei [13]): 100%
 | CCN(CC)CCCC(C)Nc1ccnc2cc(Cl)ccc12 (stereo not drawn) [CHLOROQUINE] | ED50 (Plasmodium berghei [4]): 3.3 mg/kg; ED90 (Plasmodium berghei [4]): 4.6 mg/kg

Structure (SMILES) | pIC50 (Plasmodium falciparum [1]) | further results
Cc1c(-c2ccc(-c3ccc(C(F)(F)F)nc3)nc2)[nH]c2ccccc2c1=O | 6.43 | pIC50 (Plasmodium falciparum [3]): 6.48
Cc1c(-c2ccc(Oc3ccc(OC(F)(F)F)cc3)nc2)[nH]c2ccccc2c1=O | 7.40 | pIC50 [2]: 6.96; pIC50 (Plasmodium falciparum [3]): 7.30
Cc1c(-c2ccc(Cc3ccc(C(F)(F)F)nc3)cc2F)[nH]c2ccccc2c1=O | 6.87 | pIC50 (Plasmodium falciparum [3]): 7.17
Cc1c(-c2ccc(CN3CCOCC3)cc2)[nH]c2ccccc2c1=O | 7.49 | pIC50 (Plasmodium falciparum [3]): 5.51
